ChEMBL document CHEMBL3272016, “Potential inhibitors of collagen biosynthesis. 5,5-Difluoro-DL-lysine and 5,5-dimethyl-DL-lysine and their activation by lysyl-tRNA ligase” (J Med Chem, 1977)
The source made the active and inactive calls. The rule behind the calls is not given here.

Legend:
[1] = Dissociation constant, pKa of the compound; format: physicochemical
P388 [2] = experiment: Cytotoxicity against mouse P388 cells assessed as growth inhibition at 0.5 mM after 72 hrs by hemocytometry; format: functional; conditions: P388, 72 h, read-out: GI
L929 = experiment: Inhibition of collagen biosynthesis in mouse L929 fibroblasts assessed as [3H]lysine/[14C]proline incorporation into protein at 5 mM; format: functional, cell-based
Mus musculus [3] = species on record: Mus musculus; experiment: Inhibition of peptidyl lysine hydroxylase in mouse L929 fibroblasts assessed as release of [3H] as [3H]OH from [4,5-3H]lysylprotocollagen measured per mg of protein at 5 mM (reference value: 1228 cpm)
Mus musculus [4] = species on record: Mus musculus; experiment: Inhibition of peptidyl lysine hydroxylase in mouse L929 fibroblasts assessed as release of [3H] as [3H]OH from [4,5-3H]lysylprotocollagen measured per mg of protein at 0.20 mM (reference value: 1228 cpm)
Mus musculus [5] = species on record: Mus musculus; experiment: Inhibition of peptidyl lysine hydroxylase in mouse L929 fibroblasts assessed as release of [3H] as [3H]OH from [4,5-3H]lysylprotocollagen measured per mg of protein at 0.01 mM (reference value: 1228 cpm)
P388 [6] = experiment: Cytotoxicity against mouse P388 cells assessed as growth inhibition at 0.55 mM after 72 hrs by hemocytometry; format: functional, cell-based
Mus musculus [7] = species on record: Mus musculus; experiment: Inhibition of peptidyl lysine hydroxylase in mouse L929 fibroblasts assessed as release of [3H] as [3H]OH from [4,5-3H]lysylprotocollagen measured per mg of protein at 0.05 mM (reference value: 1228 cpm)
Mus musculus [8] = species on record: Mus musculus; experiment: Inhibition of peptidyl lysine hydroxylase in mouse L929 fibroblasts assessed as release of [3H] as [3H]OH from [4,5-3H]lysylprotocollagen measured per mg of protein at 0.10 mM (reference value: 1228 cpm)
Mus musculus [9] = species on record: Mus musculus; experiment: Inhibition of peptidyl lysine hydroxylase in mouse L929 fibroblasts assessed as release of [3H] as [3H]OH from [4,5-3H]lysylprotocollagen measured per mg of protein at 1 mM (reference value: 1228 cpm)
Mus musculus [10] = species on record: Mus musculus; experiment: Inhibition of peptidyl lysine hydroxylase in mouse L929 fibroblasts
Mus musculus [11] = species on record: Mus musculus; experiment: Inhibition of peptidyl lysine hydroxylase in mouse L929 fibroblasts assessed as release of [3H] as [3H]OH from [4,5-3H]lysylprotocollagen measured per mg of protein at 2 mM (reference value: 1228 cpm)
[12] = Competitive inhibition of Escherichia coli B lysyl-tRNA ligase using lysine as substrate after 15 mins by double reciprocal plot analysis; conditions: read-out: Ki(app)
P388 [13] = experiment: Cytotoxicity against mouse P388 cells assessed as growth inhibition at 0.15 mM after 72 hrs by hemocytometry; format: functional; conditions: P388, 72 h, read-out: GI

Description for Escherichia coli B: Activity of Escherichia coli B lysyl-tRNA ligase after 15 mins by Lineweaver-Burk plot analysis

With `NCCSC[C@H](N)C(=O)O` the pKa [1] was 9.52, the Km (Escherichia coli B) was 1.4 µM and the inhibition of growth at 500 µM (P388 [2]) was 93%.
For `NCC(F)(F)CCC(N)C(=O)O` (racemic), the Activity (L929) was “inactive”, the Activity (Mus musculus [3]) was 920 cpm and the Activity (Mus musculus [4]) was 1270 cpm. For the same compound, the Activity (Mus musculus [5]) was 1220 cpm, the “growth inhibition (GI)” value (P388 [6]) was “inactive” and the Activity (Mus musculus [7]) was 1270 cpm. For the same compound, the pKa [1] was 6.88, the Km (Escherichia coli B) was 1310 µM and the Activity (Mus musculus [8]) was 1230 cpm. The Activity (Mus musculus [9]) was 1070 cpm, the inhibition (Mus musculus [10]) was “inactive” and the Activity (Mus musculus [11]) was 1080 cpm.
For `CC(C)(CN)CCC(N)C(=O)O` (racemic), the Ki [12] was 16.2 mM, the “growth inhibition (GI)” value (P388 [6]) was “inactive” and the pKa [1] was 10.2.
`NC(=O)NO` [HYDROXYUREA] showed an inhibition of growth at 150 µM (P388 [13]) of 87%.
`NCCCC[C@H](N)C(=O)O` [LYSINE] gave a pKa [1] of 10.6 and a Km (Escherichia coli B) of 0.5 µM.
